Literature values as cited in patent US9206237B2, “Cystine knot peptides that bind alpha-V-beta-6 integrin” (priority 2011, dated 2015).
Read-outs that look alike come from different tables or passages of the source.

What was measured:
alpha-v-beta-6 [1] = target: T1, alpha-v-beta-6 (Homo sapiens, UniProt P06756+P18564); details: read-out: IC50, cell adhesion assays
Target sequence in this assay (P06756 31-1048): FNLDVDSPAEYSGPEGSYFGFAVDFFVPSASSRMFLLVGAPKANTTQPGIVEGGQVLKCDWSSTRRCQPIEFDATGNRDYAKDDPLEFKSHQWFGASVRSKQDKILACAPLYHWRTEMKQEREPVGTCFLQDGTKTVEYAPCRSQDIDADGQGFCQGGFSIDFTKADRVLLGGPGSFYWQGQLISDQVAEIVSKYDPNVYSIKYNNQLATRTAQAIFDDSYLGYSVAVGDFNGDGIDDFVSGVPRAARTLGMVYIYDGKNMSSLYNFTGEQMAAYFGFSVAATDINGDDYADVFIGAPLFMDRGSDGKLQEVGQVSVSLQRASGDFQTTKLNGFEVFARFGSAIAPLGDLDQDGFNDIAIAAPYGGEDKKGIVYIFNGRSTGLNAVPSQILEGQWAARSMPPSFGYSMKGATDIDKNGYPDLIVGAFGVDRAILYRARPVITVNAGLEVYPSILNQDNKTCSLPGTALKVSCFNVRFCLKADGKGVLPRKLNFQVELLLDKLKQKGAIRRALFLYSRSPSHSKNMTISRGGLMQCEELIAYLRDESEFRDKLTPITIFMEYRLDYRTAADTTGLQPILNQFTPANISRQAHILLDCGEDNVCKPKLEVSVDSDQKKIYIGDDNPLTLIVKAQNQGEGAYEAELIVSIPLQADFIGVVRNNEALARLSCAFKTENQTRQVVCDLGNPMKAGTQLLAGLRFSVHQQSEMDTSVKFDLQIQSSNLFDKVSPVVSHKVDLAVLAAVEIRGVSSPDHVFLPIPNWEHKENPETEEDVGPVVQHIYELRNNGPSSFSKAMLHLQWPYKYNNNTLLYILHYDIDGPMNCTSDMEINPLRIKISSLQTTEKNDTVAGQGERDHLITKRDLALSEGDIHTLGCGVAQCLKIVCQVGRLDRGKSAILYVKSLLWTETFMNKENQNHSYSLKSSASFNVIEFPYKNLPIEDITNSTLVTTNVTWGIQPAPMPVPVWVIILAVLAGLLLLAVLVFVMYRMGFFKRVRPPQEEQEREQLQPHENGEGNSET
Target sequence in this assay (P18564 22-788): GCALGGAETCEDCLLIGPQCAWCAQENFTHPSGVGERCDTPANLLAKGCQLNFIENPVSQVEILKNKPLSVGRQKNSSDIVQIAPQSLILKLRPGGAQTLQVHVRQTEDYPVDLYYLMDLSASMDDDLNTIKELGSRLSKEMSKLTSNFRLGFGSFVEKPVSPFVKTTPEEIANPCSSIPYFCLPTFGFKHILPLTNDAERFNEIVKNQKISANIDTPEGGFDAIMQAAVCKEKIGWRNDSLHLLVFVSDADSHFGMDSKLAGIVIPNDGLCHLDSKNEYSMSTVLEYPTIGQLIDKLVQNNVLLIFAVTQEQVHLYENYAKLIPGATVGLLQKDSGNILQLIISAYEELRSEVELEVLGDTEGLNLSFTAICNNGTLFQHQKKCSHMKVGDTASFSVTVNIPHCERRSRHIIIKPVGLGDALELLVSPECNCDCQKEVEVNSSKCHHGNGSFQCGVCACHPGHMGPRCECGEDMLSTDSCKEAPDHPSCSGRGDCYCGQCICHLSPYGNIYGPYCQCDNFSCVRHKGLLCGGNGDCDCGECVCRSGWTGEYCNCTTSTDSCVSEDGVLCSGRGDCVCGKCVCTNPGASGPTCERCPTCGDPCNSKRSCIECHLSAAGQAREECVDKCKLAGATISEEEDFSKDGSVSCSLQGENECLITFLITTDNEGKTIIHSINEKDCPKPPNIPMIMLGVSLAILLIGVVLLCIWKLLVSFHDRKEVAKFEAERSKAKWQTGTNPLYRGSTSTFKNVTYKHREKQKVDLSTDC

alpha-v-beta-6 [2] = target: T1, alpha-v-beta-6; details: inhibition of RGD-dependent ligand binding; read-out: IC50, isolated receptor assays
Target sequence in this assay (P06756 31-992 limits assumed): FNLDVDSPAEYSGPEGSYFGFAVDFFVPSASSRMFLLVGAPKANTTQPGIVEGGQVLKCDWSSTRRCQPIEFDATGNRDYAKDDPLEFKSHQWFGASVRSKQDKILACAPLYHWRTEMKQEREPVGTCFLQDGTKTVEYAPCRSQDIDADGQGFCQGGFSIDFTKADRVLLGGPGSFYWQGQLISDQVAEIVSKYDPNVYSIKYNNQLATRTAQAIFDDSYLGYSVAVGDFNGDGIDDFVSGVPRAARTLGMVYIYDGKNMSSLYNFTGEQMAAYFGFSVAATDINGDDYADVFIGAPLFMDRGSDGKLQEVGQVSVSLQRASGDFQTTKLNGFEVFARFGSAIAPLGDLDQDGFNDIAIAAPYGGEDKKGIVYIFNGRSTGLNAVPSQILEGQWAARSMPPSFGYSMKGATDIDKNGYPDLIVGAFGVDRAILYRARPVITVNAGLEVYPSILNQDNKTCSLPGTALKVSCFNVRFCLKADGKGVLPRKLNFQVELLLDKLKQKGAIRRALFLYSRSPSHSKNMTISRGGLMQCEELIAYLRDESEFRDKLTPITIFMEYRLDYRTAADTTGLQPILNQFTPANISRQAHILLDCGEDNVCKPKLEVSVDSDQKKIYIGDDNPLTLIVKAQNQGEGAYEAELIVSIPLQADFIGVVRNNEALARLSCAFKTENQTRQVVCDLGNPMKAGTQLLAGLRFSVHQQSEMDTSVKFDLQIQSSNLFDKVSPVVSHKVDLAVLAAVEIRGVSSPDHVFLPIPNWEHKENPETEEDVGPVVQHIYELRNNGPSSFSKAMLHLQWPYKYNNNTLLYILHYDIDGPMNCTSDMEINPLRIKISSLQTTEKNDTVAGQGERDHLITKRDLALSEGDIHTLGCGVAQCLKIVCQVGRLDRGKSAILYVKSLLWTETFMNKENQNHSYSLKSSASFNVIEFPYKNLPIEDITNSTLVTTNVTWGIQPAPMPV
Target sequence in this assay (P18564 22-709 limits assumed): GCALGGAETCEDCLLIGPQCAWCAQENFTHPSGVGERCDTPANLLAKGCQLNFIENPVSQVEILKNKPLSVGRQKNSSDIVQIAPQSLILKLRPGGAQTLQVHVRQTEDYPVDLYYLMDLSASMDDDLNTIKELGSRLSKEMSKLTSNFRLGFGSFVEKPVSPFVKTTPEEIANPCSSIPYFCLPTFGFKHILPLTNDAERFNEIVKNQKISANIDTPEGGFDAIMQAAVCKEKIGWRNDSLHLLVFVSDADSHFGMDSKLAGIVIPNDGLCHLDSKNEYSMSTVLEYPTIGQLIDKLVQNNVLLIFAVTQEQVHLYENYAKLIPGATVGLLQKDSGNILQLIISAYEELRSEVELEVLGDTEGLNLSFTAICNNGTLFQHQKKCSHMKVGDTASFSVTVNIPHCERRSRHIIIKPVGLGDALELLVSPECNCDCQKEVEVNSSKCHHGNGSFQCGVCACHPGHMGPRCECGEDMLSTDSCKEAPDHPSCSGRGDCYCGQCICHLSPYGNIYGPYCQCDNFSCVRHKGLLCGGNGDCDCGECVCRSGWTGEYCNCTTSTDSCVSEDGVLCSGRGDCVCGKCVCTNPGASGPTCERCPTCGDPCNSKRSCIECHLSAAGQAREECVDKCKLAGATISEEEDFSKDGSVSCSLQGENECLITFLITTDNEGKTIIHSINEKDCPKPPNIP

In the case of RTDLDSLRTYTL, the IC50 (alpha-v-beta-6 [1]) is given as 50 µM and the IC50 (alpha-v-beta-6 [2]) is given as 0.02 µM.
